Experimental data reported in US20230077362A1 (CORTEVA AGRISCIENCE LLC, priority 2019, published 2023).
Where two headings read alike, the source gives them in different places.

Columns and labels:
Format in all cases: in vivo
[1] = test system: Beet Armyworm (Spodoptera exigua) ("BAW"), second instar larvae; assay: Bioassay on beet armyworm (BAW), 128-well diet tray assay; details: Spodoptera exigua
Procedure, shortened: (§1)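 Second-instar larvae on diet in 128-well trays, covered and held at 25° C, 14:10 light-dark, for five to seven days. Percent mortality scored per well and averaged over eight wells; activity reported as a rating category.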

[2] = test system: Cabbage Looper (Trichoplusia ni) ("CL"), second instar larvae; assay: Bioassay on cabbage looper (CL), 128-well diet tray assay; details: Trichoplusia ni
Procedure, shortened: as §1

[3] = test system: Yellow Fever Mosquito "YFM" (Aedes aegypti), about 1 day-old larvae; assay: Bioassay on yellow fever mosquito (YFM), 96-well plate larval assay; details: Table ABC, species YFM; mortality scored after 3 days; C = not tested, D = no activity noticed
Method: Example C: Bioassays on Yellow Fever Mosquito “YFM” (Aedes aegypti)
Certain molecules disclosed in this document were tested against YFM using procedures described in the following paragraph. In the reporting of the results, the “YFM Rating Table” was used (See Table Section).
Master plates containing 400 μg of a molecule dissolved in 100 μL of dimethyl sulfoxide (DMSO) (equivalent to a 4000 ppm solution) are used. A master plate of assembled molecules contains 15 μL per well. To this plate, 135 μL of a 90:10 water:acetone mixture is added to each well. A robot (Biomek® NXP Laboratory Automation Workstation) is programmed to dispense 15 μL aspirations from the master plate into an empty 96-well shallow plate (“daughter” plate). There are 6 reps (“daughter” plates) created per master. The created daughter plates are then immediately infested with YFM larvae.
The day before plates are to be treated, mosquito eggs are placed in Millipore water containing liver powder to begin hatching (4 g. into 400 mL). After the daughter plates are created using the robot, they are infested with 220 μL of the liver powder/larval mosquito mixture (about 1 day-old larvae). After plates are infested with mosquito larvae, a non-evaporative lid is used to cover the plate to reduce drying. Plates are held at room temperature for 3 days prior to grading. After 3 days, each well is observed and scored based on mortality.

[4] = test system: Green Peach Aphid ("GPA") (Myzus persicae), wingless adult and nymph stages; assay: Bioassay on green peach aphid (GPA), foliar spray on infested cabbage seedlings; details: Myzus persicae, foliar, 72 h, read-out: GPA (Biological Results, rating)
Procedure, shortened: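 Cabbage seedlings with 2-3 true leaves, infested one day earlier with 20-50 wingless adult and nymph GPA, sprayed to runoff on both leaf sides; solvent check held 20% acetone/methanol (1:1). Live aphids counted after three days at about 25° C; corrected % control = 100*(X−Y)/X versus solvent check.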

[5] = read-out: BAW (Biological Results, rating)
[6] = read-out: CL (Biological Results, rating)

Structure (SMILES) | pest or weed control at 50 µg/cm2 ([1]; read-out: BAW rating) | pest or weed control at 50 µg/cm2 ([2]; read-out: CL rating) | YFM rating [3] | pest or weed control at 50 µg/cm2 [1, 5] | pest or weed control at 50 µg/cm2 [2, 6] | pest or weed control at 200 µg/mL [4]
Cc1cc(N2C(=O)CS/C2=N\C(=O)Nc2ccc(-c3ncn(-c4ccc(OC(F)(F)F)cc4)n3)cc2F)c(C)cc1F [Compound J714, (Z)-1-(3-(4-Fluoro-2,5-dimethylphenyl)-4-oxothiazolidin-2-ylidene)-3-(2-fluoro-4-(1-(4-(trifluoromethoxy)phenyl)-1H-1,2,4-triazol-3-yl)phenyl)urea] | 50 to 100% | 50 to 100% | A (80-100) |  |  | 
Cc1ccc(COCc2cc(C(F)(F)F)cc(C(F)(F)F)c2)c(N2C(=O)CS/C2=N\C(=O)Nc2ccc(-c3ncn(-c4ccc(C(F)(F)F)cc4)n3)cc2F)c1 [Compound J748, (Z)-1-(3-(2-(((3,5-Bis(trifluoromethyl)benzyl)oxy)methyl)-5-methylphenyl)-4-oxothiazolidin-2-ylidene)-3-(2-fluoro-4-(1-(4-(trifluoromethyl)phenyl)-1H-1,2,4-triazol-3-yl)phenyl)urea] |  |  | A (80-100) |  |  | 
O=C(/N=C1\SCC(=O)N1c1cc(C(F)(F)F)ccc1COCc1ccccc1)Nc1ccc(-c2ncn(-c3ccc(OC(F)(F)F)cc3)n2)cc1F [Compound J741, (Z)-1-(3-(2-((Benzyloxy)methyl)-5-(trifluoromethyl)phenyl)-4-oxothiazolidin-2-ylidene)-3-(2-fluoro-4-(1-(4-(trifluoromethoxy)phenyl)-1H-1,2,4-triazol-3-yl)phenyl)urea] |  |  | A (80-100) |  |  | 
CCc1cc(-c2ncn(-c3ccc(OC(F)(F)F)cc3)n2)ccc1NC(=O)/N=C1\SCC(=O)N1c1cc(C)ccc1OCC(F)(F)F [Compound J75, (Z)-1-(2-Ethyl-4-(1-(4-(trifluoromethoxy)phenyl)-1H-1,2,4-triazol-3-yl)phenyl)-3-(3-(5-methyl-2-(2,2,2-trifluoroethoxy)phenyl)-4-oxothiazolidin-2-ylidene)urea] |  |  |  | 50 to 100% | 50 to 100% | 0 to 80%
Cc1ccc(COCc2ccccc2OC(F)(F)F)c(N2C(=O)CS/C2=N\C(=O)Nc2ccc(-c3ncn(-c4ccc(C(F)(F)F)cc4)n3)cc2F)c1 [Compound J746, (Z)-1-(2-Fluoro-4-(1-(4-(trifluoromethyl)phenyl)-1H-1,2,4-triazol-3-yl)phenyl)-3-(3-(5-methyl-2-(((2-(trifluoromethoxy)benzyl)oxy)methyl)phenyl)-4-oxothiazolidin-2-ylidene)urea] | 50 to 100% |  | A (80-100) |  |  | 
Cc1ccc(OCCC(F)(F)F)c(N2C(=O)CS/C2=N\C(=O)Nc2ccc(-c3ncn(-c4ccc(OC(F)(F)F)cc4)n3)cc2)c1 [Compound J316, (Z)-1-(3-(5-Methyl-2-(3,3,3-trifluoropropoxy)phenyl)-4-oxothiazolidin-2-ylidene)-3-(4-(1-(4-(trifluoromethoxy)phenyl)-1H-1,2,4-triazol-3-yl)phenyl)urea] |  |  |  | 50 to 100% | 50 to 100% | 0 to 80%
Cc1ccc(C(C)C)c(N2C(=O)CS/C2=N\C(=O)Nc2ccc(-c3ncn(-c4ccc(C#N)cc4)n3)cc2F)c1 [Compound J287, (Z)-1-(4-(1-(4-Cyanophenyl)-1H-1,2,4-triazol-3-yl)-2-fluorophenyl)-3-(3-(2-isopropyl-5-methylphenyl)-4-oxothiazolidin-2-ylidene)urea] |  |  |  | 50 to 100% | 50 to 100% | 0 to 80%
CC(C)c1ccc(N(C)C)cc1N1C(=O)CS/C1=N\C(=O)Nc1ccc(-c2ncn(-c3cccc(C(F)(F)F)c3)n2)cc1 [Compound J325, (Z)-1-(3-(5-(Dimethylamino)-2-isopropylphenyl)-4-oxothiazolidin-2-ylidene)-3-(4-(1-(3-(trifluoromethyl)phenyl)-1H-1,2,4-triazol-3-yl)phenyl)urea] |  |  |  | 50 to 100% | 50 to 100% | 0 to 80%
CCOc1ccc(C)cc1N1C(=O)CS/C1=N\C(=O)Nc1ccc(-c2ncn(-c3ccc(SC(F)(F)F)cc3)n2)cc1F [Compound J224, (Z)-1-(3-(2-Ethoxy-5-methylphenyl)-4-oxothiazolidin-2-ylidene)-3-(2-fluoro-4-(1-(4-((trifluoromethyl)thio)phenyl)-1H-1,2,4-triazol-3-yl)phenyl)urea] |  |  |  | 50 to 100% | 50 to 100% | 0 to 80%
Cc1cc(-c2ncn(-c3cccc(OC(F)(F)F)c3)n2)ccc1NC(=O)/N=C1\SCC(=O)N1c1cc(N(C)C)ccc1C(C)C [Compound J137, (Z)-1-(3-(5-(Dimethylamino)-2-isopropylphenyl)-4-oxothiazolidin-2-ylidene)-3-(2-methyl-4-(1-(3-(trifluoromethoxy)phenyl)-1H-1,2,4-triazol-3-yl)phenyl)urea] |  |  |  | 50 to 100% | 50 to 100% | 0 to 80%
Cc1ccc(C(C)C)c(N2C(=O)CS/C2=N\C(=O)Nc2ccc(-c3ncn(-c4cccc(OC(F)(F)F)c4)n3)cc2)c1 [Compound J327, (Z)-1-(3-(2-Isopropyl-5-methylphenyl)-4-oxothiazolidin-2-ylidene)-3-(4-(1-(3-(trifluoromethoxy)phenyl)-1H-1,2,4-triazol-3-yl)phenyl)urea] |  |  |  | 50 to 100% | 50 to 100% | 0 to 80%
CNc1ccc(C(C)C)c(N2C(=O)CS/C2=N\C(=O)Nc2ccc(-c3ncn(-c4ccc(OC(F)(F)F)cc4)n3)cc2C)c1 [Compound J126, (Z)-1-(3-(2-Isopropyl-5-(methylamino)phenyl)-4-oxothiazolidin-2-ylidene)-3-(2-methyl-4-(1-(4-(trifluoromethoxy)phenyl)-1H-1,2,4-triazol-3-yl)phenyl)urea] |  |  |  | 50 to 100% | 50 to 100% | 0 to 80%
COC(C)c1ccc(C)cc1N1C(=O)CS/C1=N\C(=O)Nc1ccc(-c2ncn(-c3cccc(OC(F)(F)F)c3)n2)cc1F (stereo not shown) [Compound J120, (Z)-1-(2-Fluoro-4-(1-(3-(trifluoromethoxy)phenyl)-1H-1,2,4-triazol-3-yl)phenyl)-3-(3-(2-(1-methoxyethyl)-5-methylphenyl)-4-oxothiazolidin-2-ylidene)urea] |  |  |  | 50 to 100% | 50 to 100% | 0 to 80%
COc1ccc(C(C)C)c(N2C(=O)CS/C2=N\C(=O)Nc2ccc(-c3ncn(-c4cccc(OC(F)(F)F)c4)n3)cc2F)c1 [Compound J154, (Z)-1-(2-Fluoro-4-(1-(3-(trifluoromethoxy)phenyl)-1H-1,2,4-triazol-3-yl)phenyl)-3-(3-(2-isopropyl-5-methoxyphenyl)-4-oxothiazolidin-2-ylidene)urea] |  |  |  | 50 to 100% | 50 to 100% | 0 to 80%
CC(C)c1ccccc1N1C(=O)CS/C1=N\C(=O)Nc1ccc(-c2ncn(-c3ccc(OC(F)(F)F)cc3)n2)cc1F [Compound J86, (Z)-1-(2-Fluoro-4-(1-(4-(trifluoromethoxy)phenyl)-1H-1,2,4-triazol-3-yl)phenyl)-3-(3-(2-isopropylphenyl)-4-oxothiazolidin-2-ylidene)urea] |  |  |  | 50 to 100% | 50 to 100% | 0 to 80%
